Columns and labels:
[1] = tested on: CEM-SS; experiment: Effective concentration required to inhibit the replication of HIV-1 in CEMSS human T4 lymphoblastoid cell lines; assay type: functional, cell-based
[2] = tested on: MT4; experiment: Cytotoxic concentration required to inhibit the replication of HIV-1 in MT-4 human T4 lymphoblastoid cell lines; assay type: functional
[3] = tested on: MT4; experiment: Effective concentration required to inhibit the replication of HIV-1 in MT-4 human T4 lymphoblastoid cell lines; assay type: functional, cell-based
[4] = tested on: CEM-SS; experiment: Cytotoxic concentration required to inhibit the replication of HIV-1 in CEM-SS human T4 lymphoblastoid cell lines; assay type: functional
[5] = tested on: MT2; experiment: Effective concentration required to inhibit the replication of HIV-1 in MT-2 human T4 lymphoblastoid cell lines; assay type: functional, cell-based
[6] = tested on: MT2; experiment: Cytotoxic concentration required to inhibit the replication of HIV-1 in MT-2 human T4 lymphoblastoid cell lines; assay type: functional

Row | SMILES | EC50 [1] [µM] | CC50 [2] [µM] | EC50 [3] [µM] | CC50 [4] [µM] | EC50 [5] [µM] | CC50 [6] [µM]
1 | CC(C)(C)C(=O)SCCOP(=O)(OCC=C=Cn1cnc2c(N)ncnc21)OCCSC(=O)C(C)(C)C | 1.2 | > 10 | 8.9 | > 10 | 6.4 | 28
2 | Nc1ncnc2c1ncn2C=C=CCO (racemic) | 56 | > 100 | > 100 | > 100 | > 100 | > 100

— ChEMBL document CHEMBL1135383, “Increase of the adenallene anti-HIV activity in cell culture using its bis(tBuSATE) phosphotriester derivative” (Bioorg Med Chem Lett, 2002)
